# pIC50: −log10 of the molar value.
# Target: T1, recombinant hGYS1/GN1 protein (Homo sapiens, UniProt P13807)
# T1 sequence (P13807 1-737): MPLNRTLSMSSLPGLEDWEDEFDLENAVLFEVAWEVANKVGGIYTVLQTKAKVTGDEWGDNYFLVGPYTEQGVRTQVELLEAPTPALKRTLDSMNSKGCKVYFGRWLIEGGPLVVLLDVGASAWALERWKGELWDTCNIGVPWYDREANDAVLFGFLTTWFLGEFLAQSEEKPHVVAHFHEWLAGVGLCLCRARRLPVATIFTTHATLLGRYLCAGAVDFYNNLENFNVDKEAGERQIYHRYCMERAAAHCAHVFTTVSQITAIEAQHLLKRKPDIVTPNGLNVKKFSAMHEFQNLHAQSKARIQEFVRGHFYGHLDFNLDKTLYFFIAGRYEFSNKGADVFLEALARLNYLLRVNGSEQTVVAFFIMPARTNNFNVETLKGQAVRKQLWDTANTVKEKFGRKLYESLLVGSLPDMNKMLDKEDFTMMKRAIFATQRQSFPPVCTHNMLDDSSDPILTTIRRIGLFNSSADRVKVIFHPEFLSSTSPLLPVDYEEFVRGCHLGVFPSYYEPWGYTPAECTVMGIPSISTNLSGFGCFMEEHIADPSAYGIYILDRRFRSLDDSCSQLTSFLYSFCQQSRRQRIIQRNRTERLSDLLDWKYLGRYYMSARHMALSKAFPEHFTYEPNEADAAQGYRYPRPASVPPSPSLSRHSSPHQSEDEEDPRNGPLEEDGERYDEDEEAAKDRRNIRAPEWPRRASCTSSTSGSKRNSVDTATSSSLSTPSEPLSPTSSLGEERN
# T1 sequence (P46976 1-350 partner): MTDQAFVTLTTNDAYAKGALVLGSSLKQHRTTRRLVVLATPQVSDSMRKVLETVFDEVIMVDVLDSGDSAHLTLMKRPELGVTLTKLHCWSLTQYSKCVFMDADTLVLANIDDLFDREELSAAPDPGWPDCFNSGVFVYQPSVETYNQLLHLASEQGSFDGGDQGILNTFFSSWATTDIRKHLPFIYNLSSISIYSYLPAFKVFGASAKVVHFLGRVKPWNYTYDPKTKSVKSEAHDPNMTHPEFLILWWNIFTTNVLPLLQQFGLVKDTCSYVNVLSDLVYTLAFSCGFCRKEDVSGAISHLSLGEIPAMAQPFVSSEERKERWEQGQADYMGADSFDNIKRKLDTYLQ
# Assay: GYS1 coupled enzyme assay (PK/LDH)
# Type: biochemical
# Settings: geometric mean of at least 2 assay runs; NADH absorbance at 340 nm
# Text: The GYS1 coupled enzyme assay is a kinetic biochemical assay that indirectly quantifies the rate of glycogen synthesis by coupling the conversion of GYS1 substrate UDP-glucose into UDP with downstream enzymatic reactions. UDP is released from UDP-glucose as glucose monomers are linked into the growing glycogen strand by GYS1. The coupled assay then proceeds with pyruvate kinase utilizing UDP and phospho(enol)pyruvate (PEP) to form pyruvate. Lactate dehydrogenase then converts pyruvate and NADH into lactate and NAD+. Oxidation of NADH to NAD+ can be measured continuously with a plate reader by quantifying the decrease in NADH absorbance at 340 nm over time.
# Compounds that inhibit the hGYS1 enzyme and, subsequently, the downstream conversion of NADH to NAD+, were tested using assay ready plates (black, clear bottom 384 well plates) in a final DMSO reaction volume of 2.5% DMSO. The Assay Buffer contained 50 mM Tris pH 7.5, 2 mM MgCl2, and 100 mM KCl. Fresh stocks of BSA at a final concentration of 0.02% and TCEP at 1 mM were added before splitting buffer into hGYS1 buffer and substrate buffer. To the hGYS1 buffer, rabbit liver glycogen was added at a final concentration of 0.2% glycogen. Glucose-6-Phosphate was added at 1 mM, recombinant hGYS1/GN1 protein was added at 50 nM to the substrate buffer, phosphoenolpyruvate (PEP) was added at 2 mM, UDP-Glucose was added at 0.8 mM, NADH) was added at 0.6 mM, and Pyruvate Kinase/Lactate Dehydrogenase was added at 20 units/mL. The reaction was initiated by mixing hGYS1 buffer and substrate buffer at a 1:1 ratio. Both buffers were plated using a liquid dispensing device with hGYS1 buffer plated first followed by the substrate buffer. Plates were spun briefly to eliminate air bubbles and are immediately read in continuous mode at an absorbance of 340 nm, for 10 time points in one-minute increments, for a total of 10 minutes. The slope from these 10 time points was normalized to the positive and negative control wells. The duplicate % inhibition values are then averaged and fit to a Hill equation for dose response according to the Levenberg-Marquardt algorithm with the Hill equation maximum set to 100 and the minimum set to 0.
# The results are shown in Table 3 below, which reports the IC50 of each compound. Unless otherwise specified, IC50 values are reported as the geometric mean of at least 2 assay runs on separate days. Each run represents the average of a technical replicate, where each compound was assayed twice in the same plate. As shown in the table below, the compounds of the present invention are potent inhibitors of human GYS1.
row,pIC50,SMILES
1,6.13,"CC(=O)Nc1cccc([C@H](NC(=O)C2CC2)c2ccc(C(C)C)cc2)c1 [compound 6, (R)-N-((3-acetamidophenyl)(4-isopropylphenyl)methyl)cyclopropanecarboxamide]"
2,5.94,"Cc1ccccc1[C@H](NC(=O)[C@@H]1CCC[C@@H]1C#N)c1ccc(C(C)C)cc1 [compound 7, (1R,2S)-2-cyano-N-((R)-(4-isopropylphenyl)(o-tolyl)methyl)cyclopentane-1-carboxamide]"
3,5.76,"CNC(=O)[C@H]1CCC[C@H]1C(=O)N[C@H](c1ccc(C(C)C)cc1)c1ccccc1C [compound 16, (1R,2S)-N^1-((R)-(4-isopropylphenyl)(o-tolyl)methyl)-N^2-methylcyclopentane-1,2-dicarboxamide]"
4,5.53,"COC(=O)CCNC(=O)[C@H]1CCC[C@H]1C(=O)N[C@H](c1ccc(C(C)C)cc1)c1ccccc1C [compound 20, methyl 3-((1S,2R)-2-(((R)-(4-isopropylphenyl)(o-tolyl)methyl)carbamoyl)cyclopentane-1-carboxamido)propanoate]"
5,5.82,"CC(=O)NCC(=O)N[C@H]1CCC[C@H]1C(=O)N[C@@H](c1ccccc1)c1ccc(C(C)C)cc1 [compound 21, (1R,2S)-2-(2-acetamidoacetamido)-N-((S)-(4-isopropylphenyl)(phenyl)methyl)cyclopentane-1-carboxamide]"
6,5.89,"Cc1ccccc1[C@H](NC(=O)[C@@H]1CCC[C@@H]1C(=O)NC#N)c1ccc(C(C)C)cc1 [compound 22, (1S,2R)-N^1-cyano-N^2-((R)-(4-isopropylphenyl)(o-tolyl)methyl)cyclopentane-1,2-dicarboxamide]"
7,5.92,"COCCN1CC(C(=O)Nc2ccccc2[C@H](NC(=O)C2CC2)c2ccc(C(C)C)cc2)C1 [compound 24, (R)-N-(2-(cyclopropanecarboxamido(4-isopropylphenyl)methyl)phenyl)-1-(2-methoxyethyl)azetidine-3-carboxamide]"
8,5.53,"CC(=O)N[C@@H](CC(N)=O)C(=O)N[C@H]1CCC[C@H]1C(=O)N[C@@H](c1ccccc1)c1ccc(C(C)C)cc1 [compound 28, (S)-2-acetamido-N^1-((1S,2R)-2-(((S)-(4-isopropylphenyl)(phenyl)methyl)carbamoyl)cyclopentyl)succinamide]"
9,5.86,"Cc1ccccc1[C@H](NC(=O)[C@@H]1CCC[C@@H]1C(N)=O)c1ccc(C(C)C)cc1 [compound 30, (1R,2S)-N^1-((R)-(4-isopropylphenyl)(o-tolyl)methyl)cyclopentane-1,2-dicarboxamide]"
10,6.11,"CC(C)c1ccc([C@@H](NC(=O)[C@H]2CCC(F)C2)c2ccccc2)cc1 (stereo partly drawn) [compound 34, (1S)-3-fluoro-N-((S)-(4-isopropylphenyl)(phenyl)methyl)cyclopentane-1-carboxamide]"
11,5.95,"CC(C)c1ccc([C@@H](NC(=O)[C@H]2CCC(O)C2)c2ccccc2)cc1 (stereo partly drawn) [compound 35, (1S)-3-hydroxy-N-((S)-(4-isopropylphenyl)(phenyl)methyl)cyclopentane-1-carboxamide]"
12,5.72,"CC(C)c1ccc([C@@H](NC(=O)[C@@H]2CCC[C@@H]2NC(N)=O)c2ccccc2)cc1 [compound 38, (1R,2S)-N-((S)-(4-isopropylphenyl)(phenyl)methyl)-2-ureidocyclopentane-1-carboxamide]"
13,5.88,"O=C(N[C@@H](c1ccccc1)c1ccc(C2CCC2)cc1)C1CC1 [compound 40, (S)-N-((4-cyclobutylphenyl)(phenyl)methyl)cyclopropanecarboxamide]"
14,5.83,"CC(=O)N1CC[C@H]1C(=O)Nc1ccccc1[C@H](NC(=O)C1CC1)c1ccc(C(C)C)cc1 [compound 42, (S)-1-acetyl-N-(2-((R)-cyclopropanecarboxamido(4-isopropylphenyl)methyl)phenyl)azetidine-2-carboxamide]"
15,5.75,"CC(C)c1ccc([C@@H](NC(=O)C2CC2)c2ccccc2NC(=O)[C@@H]2CCN2)cc1 [compound 49, (S)-N-(2-((R)-cyclopropanecarboxamido(4-isopropylphenyl)methyl)phenyl)azetidine-2-carboxamide]"

# Further lines, the compound ahead of its results:
row,SMILES,pIC50
1,"NC(=O)Nc1ccccc1[C@H](NC(=O)C1CC1)c1ccc(C2CC2)cc1 (single isomer, unassigned) [compound 17]",5.65
2,"CC(C)c1ccc([C@@H](NC(=O)C2CC2)c2ccccc2Nc2ncco2)cc1 (single isomer, unassigned) [compound 31]",5.91
3,"CC(C)c1ccc([C@@H](NC(=O)C2CC2)c2cccc3c2NC(=O)C3)cc1 (single isomer, unassigned) [compound 32]",5.70
4,"COc1ccccc1[C@H](NC(=O)C1CC1)c1ccc(C(C)C)cn1 (single isomer, unassigned) [compound 33]",5.85
5,"Cc1n[nH]cc1[C@H](NC(=O)C1CC1)c1ccc(C(C)C)cc1 (single isomer, unassigned) [compound 43]",5.61
6,"Cc1ccccc1[C@H](NC(=O)C1CC1)c1ccc(C(C)C)cn1 (single isomer, unassigned) [compound 47]",5.74
7,"CC(C)c1ccc([C@@H](NC(=O)C2CC2)c2ccccc2NC2NC(=O)N(C)C2=O)cc1 (stereo partly drawn) [compound 8, N-((1R)-(4-isopropylphenyl)(2-((1-methyl-2,5-dioxoimidazolidin-4-yl)amino)phenyl)methyl)cyclopropanecarboxamide]",6.53
8,"CC(C)c1ccc([C@@H](NC(=O)[C@H]2C[C@@H]2F)c2ccccc2NC(=O)C2CCN(C)CC2)cc1 [compound 12, N-(2-((R)-((1R,2S)-2-fluorocyclopropane-1-carboxamido)(4-isopropylphenyl)methyl)phenyl)-1-methylpiperidine-4-carboxamide]",5.79
9,"CC(C)c1ccc([C@@H](NC(=O)C2CC2)c2ccccc2NC(=O)C2CN(CC(F)(F)F)C2)cc1 [compound 23, (R)-N-(2-(cyclopropanecarboxamido(4-isopropylphenyl)methyl)phenyl)-1-(2,2,2-trifluoroethyl)azetidine-3-carboxamide]",5.92
10,"CC(C)c1ccc([C@@H](NC(=O)C2CC2)c2ccccc2NC(=O)C2CN(CC3CC3)C2)cc1 [compound 25, (R)-N-(2-(cyclopropanecarboxamido(4-isopropylphenyl)methyl)phenyl)-1-(cyclopropylmethyl)azetidine-3-carboxamide]",5.94
11,"O=C(N[C@@H](c1ccccc1)c1ccc(C2CC2)cc1)C1CC1 [compound 41, (S)-N-((4-cyclopropylphenyl)(phenyl)methyl)cyclopropanecarboxamide]",5.69
12,"CC(C)c1ccc([C@@H](NC(=O)C2CC2)c2ccccc2)nc1 [compound 45, (S)-N-((5-isopropylpyridin-2-yl)(phenyl)methyl)cyclopropanecarboxamide]",5.60
